Experimental findings from ChEMBL document CHEMBL1201862, “PubChem BioAssay data set” (2004) are described below.

Active and inactive are the calls of the source.

One test in a line: cells. In kind it is functional.
Test [1] has as its target T1, Polyadenylate-binding protein 1 (Homo sapiens, UniProt P11940). Nature of the test: MLLE binding blockers, Cy5 peptide tracer – biochemical, fluorescence polarization, Cy5-PAM2 peptide, secondary, miRNA deadenylation inhibitor project, dose response (AID 602260). Format: functional. The following applies: read-out: IC50_Mean. For orientation: Fluorescence polarisation rises when a labelled molecule tumbles more slowly, as on binding a larger partner.

Test [2] deals with T1, Polyadenylate-binding protein 1. Kind of test: MLLE domain peptide-binding blockers, IC50 – biochemical, fluorescence polarization, FITC-PAM2 peptide, dose response (AID 602259). In kind it is functional. The following applies: read-out: IC50_Mean.
Test [3] can be described thus: Luminescence Cell-Based Dose Confirmation HTS to Identify Activators of 5'UTR Stem-Loop Driven Alpha-Synuclein mRNA Translation in H4 Neuroglioblastoma Cells. [Related pubchem assays: 1829 (Project Summary), 1814 (Primary HTS)]. Format: functional.
In another test the test system is Vero. Nature of the test: viability of Vero cells under compound – cytotoxicity control for flavivirus capping enzyme inhibitors (AID 588742). In kind it is functional. Conditions: Chlorocebus sabaeus.
In another test the target is T2, Protein RecA (Mycobacterium tuberculosis, UniProt P9WHJ3).
T2 sequence (P9WHJ3 whole entry): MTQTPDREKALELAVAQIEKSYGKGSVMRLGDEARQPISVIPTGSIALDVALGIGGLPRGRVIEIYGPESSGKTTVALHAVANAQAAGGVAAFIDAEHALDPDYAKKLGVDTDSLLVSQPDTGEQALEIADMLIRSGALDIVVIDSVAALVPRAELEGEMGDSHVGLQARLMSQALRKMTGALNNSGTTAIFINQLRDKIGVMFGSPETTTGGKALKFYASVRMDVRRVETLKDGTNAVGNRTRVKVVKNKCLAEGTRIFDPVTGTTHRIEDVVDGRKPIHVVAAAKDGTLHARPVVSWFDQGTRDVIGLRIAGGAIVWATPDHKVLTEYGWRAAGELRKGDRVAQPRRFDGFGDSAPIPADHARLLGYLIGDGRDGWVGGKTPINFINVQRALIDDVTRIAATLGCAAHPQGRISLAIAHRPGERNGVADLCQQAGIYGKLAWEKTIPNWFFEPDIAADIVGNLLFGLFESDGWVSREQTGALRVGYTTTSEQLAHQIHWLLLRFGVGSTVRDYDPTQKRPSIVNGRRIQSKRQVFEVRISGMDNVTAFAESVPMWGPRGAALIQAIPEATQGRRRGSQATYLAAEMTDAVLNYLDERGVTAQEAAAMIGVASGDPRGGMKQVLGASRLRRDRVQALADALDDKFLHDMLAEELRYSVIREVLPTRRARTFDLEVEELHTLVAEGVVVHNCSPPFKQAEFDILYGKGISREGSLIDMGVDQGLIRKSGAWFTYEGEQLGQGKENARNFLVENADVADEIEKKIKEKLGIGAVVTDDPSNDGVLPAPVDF
Nature of the test: Fluorescence Cell-Free Homogeneous Dose Retest to Identify Inhibitors of RecA-Intein Splicing Activity. [Related pubchem assays (depositor defined):AID2097, AID2223, AID489010, AID492950]. In kind it is functional.

The subject of the next test is H4. Nature of the test: Luminescence Cell-Based Dose Response HTS to Identify Activators of 5'UTR Stem-Loop Driven Prion Protein mRNA Translation in H4 Neuroglioblastoma Cells. [Related pubchem assays: 1829 (Project Summary), 1814 (Primary HTS)]. Format: functional. Conditions: Homo sapiens.
Test [4] in a line: Luminescence Cell-Based Dose Response HTS to Identify Activators of Luciferase Translation or Activity in H4 […] Cells. [Related pubchem assays: 1829 (Project Summary), 1814 (Primary HTS)]. Format: functional.
The nature of test [5]: microbe, parasite or virus in culture. In kind it is functional. Conditions: Mycobacterium tuberculosis.
The target of the next test is Genome polyprotein (dengue virus type 2, UniProt P29990). Kind of test: flavivirus cap methylation enzyme inhibition – biochemical, confirmation dose response, primary screen (AID 588689). Format: functional.
Test [6] in a line: THP-1 cell cytotoxicity, dose response, cytotoxicity control for non-replicating M. tuberculosis project (AID 489025). Format: functional.
Test [7] can be described thus: Vero E6 cell cytotoxicity, dose response, cytotoxicity control for non-replicating M. tuberculosis project, secondary assay (AID 492998). Format: functional, VeroE6. Conditions: Vero C1008.
The target of test [8] is T3, Replicative DNA helicase DnaB (Mycobacterium tuberculosis, UniProt P9WMR3).
T3 sequence (P9WMR3 whole entry): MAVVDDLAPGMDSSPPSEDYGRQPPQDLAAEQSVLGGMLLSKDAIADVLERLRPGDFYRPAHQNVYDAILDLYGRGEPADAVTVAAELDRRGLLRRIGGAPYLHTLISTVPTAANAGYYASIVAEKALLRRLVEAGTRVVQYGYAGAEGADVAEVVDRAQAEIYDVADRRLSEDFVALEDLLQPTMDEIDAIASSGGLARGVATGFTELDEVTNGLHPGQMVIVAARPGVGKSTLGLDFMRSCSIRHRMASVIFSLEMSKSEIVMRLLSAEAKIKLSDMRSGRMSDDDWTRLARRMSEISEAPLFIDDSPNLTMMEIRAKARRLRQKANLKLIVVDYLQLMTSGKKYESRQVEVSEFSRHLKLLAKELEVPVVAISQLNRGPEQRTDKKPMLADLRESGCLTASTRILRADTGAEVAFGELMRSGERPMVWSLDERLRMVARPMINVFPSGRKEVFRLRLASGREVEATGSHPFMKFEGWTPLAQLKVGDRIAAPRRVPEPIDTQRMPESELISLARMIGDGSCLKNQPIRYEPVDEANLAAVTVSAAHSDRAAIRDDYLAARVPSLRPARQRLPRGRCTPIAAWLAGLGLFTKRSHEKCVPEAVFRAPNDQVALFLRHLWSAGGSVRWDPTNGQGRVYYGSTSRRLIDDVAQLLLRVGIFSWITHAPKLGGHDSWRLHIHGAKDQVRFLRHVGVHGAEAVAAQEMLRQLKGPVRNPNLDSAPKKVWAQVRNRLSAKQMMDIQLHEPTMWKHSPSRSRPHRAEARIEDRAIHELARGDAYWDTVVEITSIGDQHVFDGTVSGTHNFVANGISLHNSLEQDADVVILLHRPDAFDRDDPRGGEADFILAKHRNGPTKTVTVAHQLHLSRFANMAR
Kind of test: DnaB intein splicing inhibitors, dose response, biochemical, cell-free fluorescence (AID 449749). Format: functional.

Test [9] can be described thus: HepG2 cell cytotoxicity, dose response, cytotoxicity control for non-replicating M. tuberculosis project (AID 489018). Format: functional. The following applies: Mycobacterium tuberculosis.
For test [10], the target named is G-protein coupled receptor 55 (Homo sapiens, UniProt Q9Y2T6). Kind of test: inhibition of LPI-stimulated GPR55 beta-arrestin translocation – imaging, U2OS, beta-arrestin-GFP, LPI agonist, primary screen (AID 2013).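 Also: antagonist potency measured as reduced agonist-driven arrestin aggregation.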 In kind it is functional.
The target in test [11] is T4, Kappa-type opioid receptor (Homo sapiens, UniProt P41145). Format: functional.
The target of the next test is Beta-galactosidase (Escherichia coli, UniProt Q8VNN2). In kind it is functional.
In test [12] the target is T4, Kappa-type opioid receptor. In kind it is functional. This is another data set of the same source.
Test [13] deals with T5, Heat shock factor protein 1 (Mus musculus, UniProt P38532).
T5 sequence (P38532 whole entry): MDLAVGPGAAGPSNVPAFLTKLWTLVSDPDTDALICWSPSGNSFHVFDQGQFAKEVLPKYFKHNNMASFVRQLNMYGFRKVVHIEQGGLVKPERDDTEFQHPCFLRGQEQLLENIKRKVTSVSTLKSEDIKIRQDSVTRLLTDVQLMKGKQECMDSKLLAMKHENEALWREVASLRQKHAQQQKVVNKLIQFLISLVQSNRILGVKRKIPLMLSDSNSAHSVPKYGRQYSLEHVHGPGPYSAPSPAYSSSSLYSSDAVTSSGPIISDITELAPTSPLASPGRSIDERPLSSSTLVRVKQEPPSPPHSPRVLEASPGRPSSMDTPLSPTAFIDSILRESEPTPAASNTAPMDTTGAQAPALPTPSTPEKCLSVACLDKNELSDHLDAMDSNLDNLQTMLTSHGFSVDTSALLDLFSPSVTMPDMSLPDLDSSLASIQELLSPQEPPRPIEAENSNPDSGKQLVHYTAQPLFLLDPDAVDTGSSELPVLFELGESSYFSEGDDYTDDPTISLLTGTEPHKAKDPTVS
Nature of the test: decrease of HSF1-responsive luciferase luminescence – cell-based, NIH3T3, dose retest, confirmation (AID 2382).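 Also: NIH3T3 fibroblasts with HSF1-driven luciferase reporter stressed by proteasome inhibitor MG132; luminescence from HSF1-driven luciferase expression after 8 hours of MG132 stress.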 In kind it is functional.

The target of test [14] is T6, E3 ubiquitin-protein ligase XIAP (Homo sapiens, UniProt P98170). Nature of the test: Counter Screen using XIAP-Bir3 for Chemical Antagonists of Bir1/2 domains of IAP-family anti-apoptotic proteins. [Related pubchem assays (depositor defined):AID1018, AID1449, AID1514, AID1638, AID1749, AID1750, AID488957, AID488963].
Test [15] has as its target T6, E3 ubiquitin-protein ligase XIAP. Nature of the test: small molecules displacing peptide from XIAP – biochemical, IAP family, fluorescence polarization (AID 1018). In kind it is functional.
For test [16], the system named is Streptococcus sp. 'group A'. Kind of test: Streptococcus pyogenes SK(-)GAS viability under kanamycin – luminescence, BacTiterGlo, confirmation, counter-screen for streptokinase expression inhibitor project, dose response (AID 1900). In kind it is functional, organism-based.
For the next test, the system named is Streptococcus. Nature of the test: GAS UMAA2166 growth inhibition – luminescence, BacTiterGlo, counter-screen for streptokinase expression inhibitor project, dose response (AID 1915).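 Also: potency for reduction of bacterial viability or growth.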 In kind it is functional, organism-based. For orientation: A counterscreen serves to expose hits that act by an unwanted route or on another target.
A further test deals with T7, Streptokinase A (Streptococcus pyogenes serotype M1, UniProt P10520).
T7 sequence (P10520 whole entry): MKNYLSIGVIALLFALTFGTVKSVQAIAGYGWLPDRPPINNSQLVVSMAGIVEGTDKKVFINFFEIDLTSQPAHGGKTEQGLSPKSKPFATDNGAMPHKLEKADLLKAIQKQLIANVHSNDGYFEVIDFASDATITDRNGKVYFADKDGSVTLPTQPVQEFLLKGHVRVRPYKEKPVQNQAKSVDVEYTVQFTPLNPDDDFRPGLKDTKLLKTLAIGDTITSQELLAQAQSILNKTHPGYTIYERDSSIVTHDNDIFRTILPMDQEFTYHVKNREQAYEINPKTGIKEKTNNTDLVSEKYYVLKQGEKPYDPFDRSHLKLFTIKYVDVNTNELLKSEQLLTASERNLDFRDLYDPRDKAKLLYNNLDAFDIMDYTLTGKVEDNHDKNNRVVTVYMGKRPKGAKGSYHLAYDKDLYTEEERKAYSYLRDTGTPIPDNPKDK
Nature of the test: viability-normalized secreted streptokinase activity reduction – plasminogen activation absorbance, OD405, dose response (AID 1914).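 Also: secreted streptokinase activity via plasminogen activation per viability signal from cell pellet.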 Format: functional, Streptococcus pyogenes M1 GAS.

The target in test [17] is T8, Mannose-6-phosphate isomerase (Homo sapiens, UniProt P34949).
T8 sequence (P34949 whole entry): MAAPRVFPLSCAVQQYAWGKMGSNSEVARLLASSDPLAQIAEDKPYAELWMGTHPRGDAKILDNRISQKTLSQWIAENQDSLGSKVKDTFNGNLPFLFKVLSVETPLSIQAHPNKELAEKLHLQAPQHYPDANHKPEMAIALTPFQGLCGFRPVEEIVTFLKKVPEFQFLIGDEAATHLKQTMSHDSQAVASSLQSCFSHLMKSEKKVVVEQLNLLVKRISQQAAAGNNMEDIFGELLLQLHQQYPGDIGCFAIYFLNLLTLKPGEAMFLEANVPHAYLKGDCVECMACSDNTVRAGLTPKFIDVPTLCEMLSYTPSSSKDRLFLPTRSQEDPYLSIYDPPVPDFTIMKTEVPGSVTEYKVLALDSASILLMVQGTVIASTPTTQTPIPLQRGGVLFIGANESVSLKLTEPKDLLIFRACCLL
Nature of the test: phosphomannose isomerase inhibition – biochemical, fluorescence intensity, confirmation (AID 1535).

The next test has as its target Phosphomannomutase 2 (Homo sapiens, UniProt O15305). Kind of test: Counter screen SAR assay for PMM2 inhibitors via a fluorescence intensity assay. [Related pubchem assays (depositor defined):AID1545, AID1574].
A short description of test [18]: HIV-1 Vif–A3G interaction blockers – biochemical, TR-FRET, GST-Vif 1-94, biotin-A3G peptide, dose response retest, primary screen (AID 1117319).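 Also: TR-FRET signal of purified GST-Vif binding a biotinylated A3G peptide; inhibitors lower the FRET signal by blocking Vif and A3G binding.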 In kind it is functional. Background: In TR-FRET formats the signal depends on donor and acceptor labels being close together.

T6 sequence (P98170 whole entry): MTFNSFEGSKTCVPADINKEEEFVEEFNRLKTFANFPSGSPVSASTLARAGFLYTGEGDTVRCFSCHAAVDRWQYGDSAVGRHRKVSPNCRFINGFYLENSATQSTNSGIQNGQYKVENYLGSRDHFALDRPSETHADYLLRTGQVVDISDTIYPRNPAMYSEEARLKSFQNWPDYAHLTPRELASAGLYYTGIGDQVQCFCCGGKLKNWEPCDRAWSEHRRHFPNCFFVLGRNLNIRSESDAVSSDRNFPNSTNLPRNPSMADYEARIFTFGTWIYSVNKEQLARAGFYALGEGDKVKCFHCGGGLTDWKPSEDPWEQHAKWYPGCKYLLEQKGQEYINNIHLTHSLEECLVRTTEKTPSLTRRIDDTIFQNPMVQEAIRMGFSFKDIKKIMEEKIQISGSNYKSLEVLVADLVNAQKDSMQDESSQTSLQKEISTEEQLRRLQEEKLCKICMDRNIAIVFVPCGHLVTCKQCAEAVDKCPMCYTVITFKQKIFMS
T1 sequence (P11940 whole entry): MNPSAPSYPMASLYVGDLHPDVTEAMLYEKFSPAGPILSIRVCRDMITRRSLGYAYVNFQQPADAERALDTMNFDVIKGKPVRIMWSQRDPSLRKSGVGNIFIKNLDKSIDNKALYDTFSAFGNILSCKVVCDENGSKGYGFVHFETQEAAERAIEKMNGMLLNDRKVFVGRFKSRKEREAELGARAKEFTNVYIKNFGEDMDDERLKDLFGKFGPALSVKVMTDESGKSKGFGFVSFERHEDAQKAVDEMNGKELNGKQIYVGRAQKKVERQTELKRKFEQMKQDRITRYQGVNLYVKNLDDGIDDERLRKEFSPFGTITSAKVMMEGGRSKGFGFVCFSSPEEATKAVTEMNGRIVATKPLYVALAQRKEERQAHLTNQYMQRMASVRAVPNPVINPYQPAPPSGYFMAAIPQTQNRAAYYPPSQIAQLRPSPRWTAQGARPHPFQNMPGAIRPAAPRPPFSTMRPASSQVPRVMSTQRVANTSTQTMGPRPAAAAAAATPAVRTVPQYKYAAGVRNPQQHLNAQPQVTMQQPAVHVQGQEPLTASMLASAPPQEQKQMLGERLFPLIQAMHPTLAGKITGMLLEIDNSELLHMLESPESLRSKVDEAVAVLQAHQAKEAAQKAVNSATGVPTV
T4 sequence (P41145 whole entry): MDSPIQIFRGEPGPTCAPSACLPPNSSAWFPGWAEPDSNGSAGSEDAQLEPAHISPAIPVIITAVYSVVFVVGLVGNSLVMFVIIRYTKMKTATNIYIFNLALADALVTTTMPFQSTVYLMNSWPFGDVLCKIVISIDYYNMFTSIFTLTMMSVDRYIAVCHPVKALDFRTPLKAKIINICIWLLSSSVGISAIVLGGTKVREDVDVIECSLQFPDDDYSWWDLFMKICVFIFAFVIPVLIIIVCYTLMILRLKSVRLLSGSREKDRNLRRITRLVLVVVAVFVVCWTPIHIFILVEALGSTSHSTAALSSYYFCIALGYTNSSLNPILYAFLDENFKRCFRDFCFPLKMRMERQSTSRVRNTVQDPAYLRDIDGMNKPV
Chain of Beta-galactosidase (Q8VNN2 whole entry): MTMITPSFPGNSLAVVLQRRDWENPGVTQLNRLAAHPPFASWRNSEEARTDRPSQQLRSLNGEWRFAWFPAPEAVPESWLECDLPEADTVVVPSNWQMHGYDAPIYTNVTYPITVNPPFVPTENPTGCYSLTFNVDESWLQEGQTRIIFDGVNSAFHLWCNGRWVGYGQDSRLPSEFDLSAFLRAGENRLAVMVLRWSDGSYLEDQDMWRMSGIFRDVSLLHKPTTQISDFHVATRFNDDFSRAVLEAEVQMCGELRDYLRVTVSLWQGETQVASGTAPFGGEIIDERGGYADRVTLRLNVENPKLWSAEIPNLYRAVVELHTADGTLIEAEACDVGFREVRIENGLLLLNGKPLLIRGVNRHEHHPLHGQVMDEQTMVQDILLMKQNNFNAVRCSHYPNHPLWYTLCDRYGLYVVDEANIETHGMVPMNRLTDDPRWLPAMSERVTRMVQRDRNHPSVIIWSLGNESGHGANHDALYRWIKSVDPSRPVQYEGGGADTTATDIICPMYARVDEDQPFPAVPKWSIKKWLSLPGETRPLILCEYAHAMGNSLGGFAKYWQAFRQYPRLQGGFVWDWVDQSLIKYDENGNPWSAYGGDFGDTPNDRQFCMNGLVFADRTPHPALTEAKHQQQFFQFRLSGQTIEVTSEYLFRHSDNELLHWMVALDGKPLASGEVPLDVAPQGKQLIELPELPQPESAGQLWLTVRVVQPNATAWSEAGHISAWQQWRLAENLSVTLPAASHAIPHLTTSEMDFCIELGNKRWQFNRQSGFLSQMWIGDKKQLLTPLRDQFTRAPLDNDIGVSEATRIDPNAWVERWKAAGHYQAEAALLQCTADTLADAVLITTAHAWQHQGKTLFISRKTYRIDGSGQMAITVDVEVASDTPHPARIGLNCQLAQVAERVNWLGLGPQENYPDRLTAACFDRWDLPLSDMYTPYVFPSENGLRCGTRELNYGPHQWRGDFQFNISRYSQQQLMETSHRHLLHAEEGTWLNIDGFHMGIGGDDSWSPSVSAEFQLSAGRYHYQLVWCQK
Chain of Phosphomannomutase 2 (O15305 whole entry): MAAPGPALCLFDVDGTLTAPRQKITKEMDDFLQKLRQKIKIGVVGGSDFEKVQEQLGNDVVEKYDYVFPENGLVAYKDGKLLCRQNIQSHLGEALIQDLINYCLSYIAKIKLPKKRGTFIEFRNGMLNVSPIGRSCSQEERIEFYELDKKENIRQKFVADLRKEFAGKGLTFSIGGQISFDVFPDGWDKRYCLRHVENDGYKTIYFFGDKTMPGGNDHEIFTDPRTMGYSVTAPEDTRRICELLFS
Chain of G-protein coupled receptor 55 (Q9Y2T6 whole entry): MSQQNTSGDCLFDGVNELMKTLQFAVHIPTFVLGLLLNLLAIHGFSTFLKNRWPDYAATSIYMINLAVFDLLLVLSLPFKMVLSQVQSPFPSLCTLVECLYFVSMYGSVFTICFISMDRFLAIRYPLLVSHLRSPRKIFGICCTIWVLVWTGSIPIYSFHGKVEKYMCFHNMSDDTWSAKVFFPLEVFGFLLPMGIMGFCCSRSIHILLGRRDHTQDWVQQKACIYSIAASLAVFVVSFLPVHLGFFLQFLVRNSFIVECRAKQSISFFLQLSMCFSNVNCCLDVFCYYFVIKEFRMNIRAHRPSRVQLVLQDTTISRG
Chain of Genome polyprotein (P29990 2492-3391 limits assumed): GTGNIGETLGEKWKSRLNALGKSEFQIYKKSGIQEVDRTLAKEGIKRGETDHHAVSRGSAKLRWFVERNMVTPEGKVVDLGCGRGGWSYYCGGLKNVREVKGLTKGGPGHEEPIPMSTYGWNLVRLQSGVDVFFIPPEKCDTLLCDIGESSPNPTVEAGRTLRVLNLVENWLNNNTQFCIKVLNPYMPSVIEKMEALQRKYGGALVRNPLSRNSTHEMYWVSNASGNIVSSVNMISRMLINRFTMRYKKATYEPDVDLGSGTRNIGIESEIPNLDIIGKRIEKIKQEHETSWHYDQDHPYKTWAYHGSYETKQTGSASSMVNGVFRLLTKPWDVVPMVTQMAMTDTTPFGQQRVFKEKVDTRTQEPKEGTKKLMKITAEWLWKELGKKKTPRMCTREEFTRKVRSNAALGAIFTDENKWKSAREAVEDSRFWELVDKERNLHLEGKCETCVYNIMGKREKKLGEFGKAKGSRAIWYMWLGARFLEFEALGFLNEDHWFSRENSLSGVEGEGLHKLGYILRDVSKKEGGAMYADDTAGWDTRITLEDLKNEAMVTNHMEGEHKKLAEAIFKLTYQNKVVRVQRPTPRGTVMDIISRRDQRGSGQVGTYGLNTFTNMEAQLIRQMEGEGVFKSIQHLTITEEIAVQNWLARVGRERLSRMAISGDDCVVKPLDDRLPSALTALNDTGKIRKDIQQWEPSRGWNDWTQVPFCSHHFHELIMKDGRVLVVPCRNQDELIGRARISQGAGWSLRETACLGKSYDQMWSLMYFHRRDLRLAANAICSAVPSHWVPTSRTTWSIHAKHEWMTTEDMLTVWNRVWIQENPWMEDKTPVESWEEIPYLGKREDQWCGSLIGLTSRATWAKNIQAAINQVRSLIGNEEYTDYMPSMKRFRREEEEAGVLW

For orientation: EC50 means the concentration at which the effect is half-maximal. One may read the AC50 as the midpoint of the concentration-response curve, whichever way the signal moves. Turning to `O=[N+]([O-])c1cc([N+](=O)[O-])c2cc3ccccc3nc2c1`, the IC50 was 0.39 µM (active) in “cells”, > 66 µM (inactive) in [1], > 66 µM (inactive) in test [2] and 6.37 µM (active) on Genome polyprotein. Besides, the EC50 in test [3] was > 120 µM (not active); on Protein RecA, 1.17 µM (active); with H4, 32 µM (active); in test [4] it was > 120 µM (not active). Moreover, the CC50 in the test with Vero was 10.1 µM (active); in test [5] it was 18.9 µM (active); in [6], 5.67 µM (active); in test [7] it was 12.7 µM (active); in [9], 14 µM (active). Besides, the AC50 in test [8] was > 380 µM (inconclusive).
Turning to `O=C1/C(=C/c2ccncc2)SC(=S)N1C1CCS(=O)(=O)C1` (centres undefined), the IC50 in [10] is 5.49 µM (active).
On to `O=C(N/N=C/c1ccccn1)c1ccc([N+](=O)[O-])cc1`, for which the IC50 in test [11] is over 32 µM; in test [12], 14.7 µM (active). Besides, the EC50 on Beta-galactosidase was > 31.5 µM (inactive); in test [13], > 195 µM (not active).
For `COc1ccc(CCNC(=O)CSc2nncn2N)cc1OC`, the IC50 in test [14] is > 100 µM (inactive); in [15] it was > 100 µM (not active). Moreover, the EC50 (in [16]; with Streptococcus; on Streptokinase A) was > 150 µM (not active) throughout.
As to `COCCNP(=O)(c1ccccc1)c1nc2ccccc2s1` (centres undefined), the IC50 in test [17] was > 50 µM (inactive); at Phosphomannomutase 2, > 100 µM (inactive).
Consider `O=C(O)CN1C(=O)COc2cc(S(=O)(=O)N3CCCC3)ccc21`, for which the IC50 in [14] is > 100 µM (inactive); in test [15], > 100 µM (not active); in [18], > 100 µM (active).
